Reference: publication PMC6121439 (International Journal of Molecular Sciences, 2018)
No end group written: not given here.

Assays:
[1] = system: E. coli genes DnaK, ompC, sbmA; experiment: Bacterial gene expression by RT-qPCR; format: cell-based, Escherichia coli; settings: 0.1 µM, 30 min, RT-qPCR normalized to GAPDH
Method: (§1) The bacterial gene expression of proteins implicated in stress pathways and bacterial resistance response was evaluated following incubation with sub-lethal concentrations of the peptides. The following genes were selected: DnaK gene encoding for a chaperone, ompC gene encoding for a protein porin; sbmA encoding for an integral inner membrane protein that participates in an ABC transporter, parE encoding for a DNA topoisomerase IV and MprF for a lysyl transferase that ensures the synthesis of lysylphosphatidylglycerol (LPG). Total bacterial RNA was extracted using the mirVAna™ Isolation Kit, which integrates an organic extraction and solid-phase extraction to obtain high yields of ultra-pure, high quality RNA. […] Ampicillin was used at the same concentration as a positive control. After incubation cells were sedimented and resuspended in lysis buffer. RNA isolation was done according to manufacturer’s instructions. The amount of RNA extracted was quantified using Quantus™ Fluorometer (Promega). […] Complementary DNA (cDNA) synthesis is the first step of the two-step quantitative reverse transcriptase Polymerase Chain Reaction (RT-qPCR). cDNA was generated by the enzyme reverse transcriptase (RT). An aliquot of 1000 ng of total RNA was used to synthesize cDNA according to the manufacture instruction of iScript™ cDNA Synthesis Kit.
Gene expression of Escherichia coli and Staphylococcus aureus after peptide incubation was determined by Real Time Quantitative Polymerase Chain Reaction (RT-qPCR). The amount of amplified product was measured at each PCR cycle by using fluorescent probes and reading the signal emitted from the dyes while performing the thermal cycling. 1 μL of cDNA (5 ng) was mixed with 2 μL of RNase free water, 5 μL of iTaq Universal Master SYBR green Supermix, 1 μL of each primer of interest (500 nM), for a total volume of 10 μL per reaction. The genes studied in E. coli cells correspond to DnaK, ompC, SbmA and 16S MprF, parE for S. aureus. GAPDH was used as housekeeping for date normalization in the qPCR assays. Gene expression level was analyzed using a comparative quantification method ΔCq. This method assesses the fold change compared to a calibrator sample (control or group of reference). Counts for genes of interest were adjusted in relation to a reference (housekeeper) gene GAPDH. Reactions were subjected to 60 °C for 1 min and 95 °C for 10 min, followed by 40 cycles of 95 °C for 15 s and 60 °C for 1 min. Each sample was analyzed in triplicate. Data analysis was performed using Bio-Rad CFX Manager. The figure of gene level expression was designed by R project.

S. aureus (ATCC 502A) [2] = experiment: Bacterial viability by ATP quantification (BacTiter-Glo); format: cell-based, Staphylococcus aureus; settings: ATP luminescence, 4 h at 37 °C, mean ± SEM, three replicates of two experiments
Method: (§2) Minimum Bactericidal Concentrations (MBC100) were determined by CFU counting following plating of bacterial culture onto Petri dishes after four hours of incubation with serial peptide concentrations. The ED50 was calculated by ATP quantification using the BacTiter-Glo™ Microbial Cell Viability kit (Promega, Madison, WI, USA). Cell cytotoxicity was quantified using resazurin reduction in human monocytes. Fifty percent cytotoxic concentration (CC50) was calculated as described in Materials and methods. […] Values are given as mean ± SEM.
(§3) Antibacterial activity was assayed by following the cell viability of E. coli and S. aureus, using the BacTiter-Glo™ Microbial Cell Viability kit (Promega), which measures the number of viable bacterial cells, by ATP quantification. ATP, as an indicator of metabolically active cells, is indirectly measured by a coupled luminescence detection assay. The luminescent signal is proportional to the amount of ATP required for the conversion of luciferin into oxyluciferin in the presence of luciferase.

[3] = system: S. aureus genes 16S, parE, MprF; experiment: Bacterial gene expression by RT-qPCR; format: cell-based, Staphylococcus aureus; settings: 0.1 µM, 30 min, RT-qPCR normalized to GAPDH
Method: as §1
Gene expression of Escherichia coli and Staphylococcus aureus after peptide incubation was determined by Real Time Quantitative Polymerase Chain Reaction (RT-qPCR). The amount of amplified product was measured at each PCR cycle by using fluorescent probes and reading the signal emitted from the dyes while performing the thermal cycling. 1 μL of cDNA (5 ng) was mixed with 2 μL of RNase free water, 5 μL of iTaq Universal Master SYBR green Supermix, 1 μL of each primer of interest (500 nM), for a total volume of 10 μL per reaction. The genes studied in E. coli cells correspond to DnaK, ompC, SbmA and 16S MprF, parE for S. aureus. […] Gene expression level was analyzed using a comparative quantification method ΔCq. […] Each sample was analyzed in triplicate. […]

[4] = Liposome agglutination by dynamic light scattering; settings: DOPC/DOPG LUVs 30 µM; DLS; 25 °C; 10 mM Tris/HCl, 100 mM NaCl pH 7.4; peptide 0.1–2 µM
P. aeruginosa (PA01) = experiment: Bacterial viability by ATP quantification (BacTiter-Glo); format: cell-based, Pseudomonas aeruginosa; settings: P. aeruginosa PA01 reference strain; ATP luminescence; 4 h at 37 °C; mean ± SEM, three replicates of two experiments
Method: as §2
(§4) The MBC of each peptide was determined as described previously. Bacteria were incubated at 37 °C overnight in Luria-Bertani broth (LB) and diluted to approximately 5 × 10^5 CFU/mL. […]
as §3, with “The luminescent signal is proportional to the amount of ATP required for the conversion of luciferin into oxyluciferin in the presence of luciferase.” left out

P. aeruginosa (PA14) = experiment: as above; format: cell-based, Pseudomonas aeruginosa; settings: P. aeruginosa PA14 reference strain; ATP luminescence; 4 h at 37 °C; mean ± SEM, three replicates of two experiments
Method: as §2, §4
as §3, with “The luminescent signal is proportional to the amount of ATP required for the conversion of luciferin into oxyluciferin in the presence of luciferase.” left out

[5] = system: P. aeruginosa (M18C1) clinical isolate; experiment: as above; format: cell-based, Pseudomonas aeruginosa; settings: ATP luminescence, 4 h at 37 °C, peptide up to 100 µM
Method: as §2, §4
as §3, with “The luminescent signal is proportional to the amount of ATP required for the conversion of luciferin into oxyluciferin in the presence of luciferase.” left out

[6] = system: P. aeruginosa (M8C1) clinical isolate; experiment: as above; format: cell-based, Pseudomonas aeruginosa; settings: ATP luminescence, 4 h at 37 °C, peptide up to 100 µM
Method: as §2, §4
as §3, with “The luminescent signal is proportional to the amount of ATP required for the conversion of luciferin into oxyluciferin in the presence of luciferase.” left out

[7] = system: S.aureus (36055) clinical isolate, MRSA; experiment: as above; format: cell-based, Staphylococcus aureus; settings: ATP luminescence, 4 h at 37 °C, peptide up to 100 µM
Method: as §2, §4
as §3, with “The luminescent signal is proportional to the amount of ATP required for the conversion of luciferin into oxyluciferin in the presence of luciferase.” left out

[8] = Liposome leakage, ANTS/DPX; settings: DOPC/DOPG (3:2) LUVs 30 µM, 37 °C, 20 mM NaCl, 10 mM Tris/HCl pH 7.5
E. coli cells [9] = experiment: Minimum agglutination concentration on bacteria; format: cell-based, Escherichia coli; settings: Tris-HCl, 0.1 M NaCl, pH 7.5, 1 h at 37 °C, visual inspection, 50× stereoscope
Method: For determination of minimum agglutination concentration (MAC) values, bacterial cells were grown at 37 °C to mid-exponential phase (OD600 = 0.6), centrifuged at 5000× g for 2 min, and resuspended in Tris-HCl buffer, 0.1 M NaCl, pH 7.5 to give an absorbance of 0.2 at 600 nm. A 100 µL aliquot of the bacterial suspension was incubated with the peptide at various (0.01–10 µM) concentrations at 37 °C for 1 h. Agglutination behavior was observed by visual inspection using a 50× stereoscope microscope and the MAC value was expressed as described.

E. coli cells [10] = experiment: Bacterial membrane depolarization, DiSC3(5) dye; format: cell-based, Escherichia coli; settings: DiSC3(5) 0.4 µM, peptide 0.1 to 5 µM, 20 °C, mean ± SEM
S. aureus cells = experiment: FACS internalization of FITC-labeled peptides; format: cell-based, Staphylococcus aureus; settings: FITC-labeled peptide, sublethal concentration (0.5 µM), 10 min
Method: (§5) We performed FACS analysis in order to analyze the internalization of the FITC labeled peptides into E. coli and S. aureus cells. […] After corroborating the internalization of the peptides, the labeled peptide distribution was evaluated by FACS. Live/dead cell population was analyzed by monitoring the influx of propidium iodide (PI) at 10 min and 4 h of incubation.
(§6) Bacterial cell overnight culture was inoculated in a fresh LB to reach logarithmic phase OD600 of 0.2. A 500 µL aliquot of the bacterial suspension was incubated with 0.5 µM of each peptide for 10 min. After incubation and subsequently washes with 1× PBS at least thrice to remove presence of FITC-labeled peptide in the medium, 20,000 cells were subjected to FACS analysis using a FACSCalibur cytometer (BD Biosciences, Franklin Lakes, NJ, USA). The peptide bacterial uptake was assayed using 0.10 µM and 0.5 µM of each peptide at the first 10 min and after 4 h of peptide incubation.
(§7) (1 picture or pasted object on this page, not shown here)

E. coli (BL21) [11] = experiment: Minimum bactericidal concentration (CFU counting); format: cell-based, Escherichia coli; settings: ~5 × 10^5 CFU/mL, peptide 20 to 0.1 µM in Hepes 20 mM, 0.1 M NaCl, pH 7.5, 4 h at 37 °C, then plating, two independent experiments in triplicate
Method: as §2
(§8) The MBC of each peptide was determined as described previously. Bacteria were incubated at 37 °C overnight in Luria-Bertani broth (LB) and diluted to approximately 5 × 10^5 CFU/mL. The strains used in this study corresponded to Escherichia coli BL21 from Novagen (Madison, WI, USA), Staphylococcus aureus (ATCC502A) obtained from the Colección Española de Cultivos tipo (CECT), Universidad de Valencia, Spain, Pseudomonas aeruginosa (ATCC® 15692, PAO1), from the American Type Culture Collection (ATCC; Rockville, MD, USA) and P. aeruginosa PA14 were used as reference strains. Three clinical isolates of S. aureus, MRSA (34026, 36055 and 39413) and two clinical isolates of P. aeruginosa (M8C1 and M18C1) were obtained by the kind donation of the Centro de Investigaciones Microbiológicas, CIMIC (Universidad de los Andes, Bogotá, Colombia). […]

pET28 plasmid DNA = experiment: DNA binding gel retardation assay; settings: 200 ng pET28 plasmid DNA; peptide-to-DNA weight ratios 2.5:1, 5:1, 10:1; 20 min room temperature; 1.0% agarose gel
primary human monocytes = experiment: Cytotoxicity by resazurin reduction; format: cell-based; settings: human monocytes 4 × 10^5 cells/well, peptide up to 100 µM, 72 h at 37 °C
Method: as §2

E. coli (BL21) [12] = experiment: Bacterial viability by ATP quantification (BacTiter-Glo); format: cell-based, Escherichia coli; settings: ATP luminescence, 4 h at 37 °C, Hepes 20 mM pH 7.5, 0.1 M NaCl, peptide 100 to 0.1 µM, mean ± SEM, three replicates of two experiments
Method: as §2, §3

S. aureus (ATCC 502A) [13] = experiment: Minimum bactericidal concentration (CFU counting); format: cell-based, Staphylococcus aureus; settings: ~5 × 10^5 CFU/mL, peptide 20 to 0.1 µM in Hepes 20 mM, 0.1 M NaCl, pH 7.5, 4 h at 37 °C, then plating, two independent experiments in triplicate
Method: as §2, §8

E. coli cells [14] = experiment: Bacterial cell leakage, SYTOX Green; format: cell-based, Escherichia coli; settings: SYTOX Green 5 µM, 40 min, Triton X-100 = maximum, mean ± SEM
E. coli cells [15] = experiment: FACS internalization of FITC-labeled peptides; format: cell-based, Escherichia coli; settings: FITC-labeled peptide, sublethal concentration (0.5 µM), 10 min
Method: as §5, §6, §7

[16] = system: S.aureus (34026) clinical isolate, MRSA; experiment: Bacterial viability by ATP quantification (BacTiter-Glo); format: cell-based, Staphylococcus aureus; settings: ATP luminescence, 4 h at 37 °C, mean ± SEM, three replicates of two experiments
Method: as §2, §4
as §3, with “The luminescent signal is proportional to the amount of ATP required for the conversion of luciferin into oxyluciferin in the presence of luciferase.” left out

[17] = system: S.aureus (39413) clinical isolate, MRSA; experiment: as above; format: cell-based, Staphylococcus aureus; settings: ATP luminescence, 4 h at 37 °C, mean ± SEM, three replicates of two experiments
Method: as §2, §4
as §3, with “The luminescent signal is proportional to the amount of ATP required for the conversion of luciferin into oxyluciferin in the presence of luciferase.” left out

CC1(C)S[C@@H]2[C@H](NC(=O)[C@H](N)c3ccccc3)C(=O)N2[C@H]1C(=O)O [ampicillin, Ampicillin, reference compound]
DnaK gene expression [1]: upregulated | sbmA gene expression [1]: mild reduction

GLVGTLLGHIGKAILGG-OH [Peptide F2.3S, Frenatin 2.3S]
ED50 (S. aureus (ATCC 502A) [2]): 1.1 ± 0.07 µM | 16S gene expression [3]: did not induce significant changes | MprF gene expression [3]: did not induce significant changes | parE gene expression [3]: did not induce significant changes | Agglutination (MAC), Liposomes [4]: >2 µM | ED50 (P. aeruginosa (PA01)): 3.4 ± 0.062 µM | ED50 (P. aeruginosa (PA14)): 3.1 ± 0.003 µM | ED50 [5]: >100 µM | ED50 [6]: >100 µM | ED50 [7]: >100 µM | Leakage (ED50), Liposomes [8]: 0.1 µM | Agglutination (MAC), Bacteria (E. coli cells [9]): >5 µM | Depolarization (ED50), Bacteria (E. coli cells [10]): 0.1 ± 0.05 µM | Internalization into bacterial cells (FACS) (S. aureus cells): internalization within bacterial cells | MBC100 (E. coli (BL21) [11]): 0.62 µM | DNA-binding activity (gel retardation) (pET28 plasmid DNA): high DNA-binding activity | CC50 (primary human monocytes): >100 µM | ED50 (E. coli (BL21) [12]): 0.23 ± 0.01 µM | MBC100 (S. aureus (ATCC 502A) [13]): 1.87 µM | Leakage (ED50), Bacteria (E. coli cells [14]): 0.1 ± 0.07 µM | Internalization into bacterial cells (FACS) (E. coli cells [15]): internalization within bacterial cells | ED50 [16]: 55.82 ± 0.005 µM | ED50 [17]: 11.99 ± 0.001 µM | DnaK gene expression [1]: upregulation | ompC gene expression [1]: upregulated | sbmA gene expression [1]: downregulation
